The target in one data set is T1, human Kv7.2/7.3 channels (Homo sapiens, UniProt O43525+O43526).
T1 construct: expressed in transfected cells
Put plainly: Assessment of recombinantly expressed human Kv7.2/7.3 channel activation on SyncroPatch automated patch clamp platform. Format: cell-based. As to conditions: for activation of Kv7.2/7.3 channels as measured by the SyncroPatch platform: FIGS. 2A-2G plots. As for the experimental part: The in vitro effects of a compound of the present application recombinantly expressed human Kv7.2/7.3 channels are assessed on Syncropatch high throughput electrophysiology platform.
Cell Preparations: CHO cells stably expressing human Kv7.2/7.3 channels were cultured in Ham's F-12 media (Hyclone, Cat #SH30022.02) supplemented with 10% Fetal Bovine Serum, 1×MEM non-essential amino acids, and 400m/ml G418 at 37° C. in 5% CO2. On the day of Syncropatch, the cells were washed once in DPBS (Hyclone, Cat #SH30028.03) for approximately 30 seconds. […] 10 ml of cold media (Ham's F-12 media (Hyclone, Cat #SH30022.02) supplemented with 10% Fetal Bovine Serum, 1×MEM non-essential amino acids, and 400m/ml G418) was added to inactivate Trypsin. The cells were then triturated until a single cell suspension was achieved, and the cell count was performed. The cells were then diluted to a concentration of 5×10^5/ml and placed into the “cell hotel” on the deck of the Syncropatch at 10° C. for about 1 hour to recover. 40 μL of the cell suspension was dispensed into each well of a 384-well Syncropatch chip by the onboard pipettor at the beginning of each Syncropatch assay.
Eight-point dose response curves were created by performing semi-log serial dilutions from 10 mM compound stock solutions in 100% DMSO. […] Final DMSO concentration in the assay was 0.3%. Final assay test concentrations were 30 μM to 0.01 μM or 1 μM to 0.0003 μM. Negative (0.3% DMSO) and positive (30 μM ML213) controls were included in each test run to assess pharmacological responsiveness.
Assessment Protocol: Electrophysiological studies of the compounds were performed using the Nanion SyncroPatch automated patch clamp platform.
Kv7 channels were evaluated using a voltage protocol in which cells were voltage-clamped at a holding potential of −110 mV. Potassium currents were activated with a series of voltage steps from −110 mV to +50 mV in 10 mV intervals with 5.5 seconds between successive voltage steps. Each voltage step was 3 seconds in duration and immediately followed by a 1 second voltage step to −120 mV to generate an inward “tail” current to allow construction of activation (G-V) curves by plotting normalized peak tail current versus the potential of the activating voltage step.
Data Analysis: Data was collected on the Syncropatch platform using PatchControl software (Nanion) and processed and analyzed using DataControl Software (Nanion). Normalized percent activation was calculated and activation curves were fit with a Boltzmann function to determine the midpoint voltage of activation (G-V midpoint) for both pre-compound and post-compound conditions for each of the 384-wells of a sealchip with Pipeline Pilot (Accelrys). The difference in G-V midpoint between pre-compound and post-compound conditions (A V0.5) was plotted as a function of concentration and concentration-response curves were fit with a three-parameter logistic equation {Y=Bottom+(Top−Bottom)/(1+10^(Log EC50−X))} for determination of the EC50 (Graphpad Prism).
A general note: Patch clamp records ionic current or voltage across a cell membrane.

For data set [1] the following is noted: in vivo; cited from earlier work.
Setting [2] is: concentration-dependent shift in G-V midpoint of activation, CHO cells stably expressing human Kv7.2/7.3, SyncroPatch, read-out: EC50 (95% CI).

Like-named read-outs stand apart in the source and are kept apart here.

As a reminder, the EC50 is the concentration that produces a half-maximal response. In general, half-life refers to the time needed for the level to fall by half in the phase considered.

T1 sequence (O43525 whole entry): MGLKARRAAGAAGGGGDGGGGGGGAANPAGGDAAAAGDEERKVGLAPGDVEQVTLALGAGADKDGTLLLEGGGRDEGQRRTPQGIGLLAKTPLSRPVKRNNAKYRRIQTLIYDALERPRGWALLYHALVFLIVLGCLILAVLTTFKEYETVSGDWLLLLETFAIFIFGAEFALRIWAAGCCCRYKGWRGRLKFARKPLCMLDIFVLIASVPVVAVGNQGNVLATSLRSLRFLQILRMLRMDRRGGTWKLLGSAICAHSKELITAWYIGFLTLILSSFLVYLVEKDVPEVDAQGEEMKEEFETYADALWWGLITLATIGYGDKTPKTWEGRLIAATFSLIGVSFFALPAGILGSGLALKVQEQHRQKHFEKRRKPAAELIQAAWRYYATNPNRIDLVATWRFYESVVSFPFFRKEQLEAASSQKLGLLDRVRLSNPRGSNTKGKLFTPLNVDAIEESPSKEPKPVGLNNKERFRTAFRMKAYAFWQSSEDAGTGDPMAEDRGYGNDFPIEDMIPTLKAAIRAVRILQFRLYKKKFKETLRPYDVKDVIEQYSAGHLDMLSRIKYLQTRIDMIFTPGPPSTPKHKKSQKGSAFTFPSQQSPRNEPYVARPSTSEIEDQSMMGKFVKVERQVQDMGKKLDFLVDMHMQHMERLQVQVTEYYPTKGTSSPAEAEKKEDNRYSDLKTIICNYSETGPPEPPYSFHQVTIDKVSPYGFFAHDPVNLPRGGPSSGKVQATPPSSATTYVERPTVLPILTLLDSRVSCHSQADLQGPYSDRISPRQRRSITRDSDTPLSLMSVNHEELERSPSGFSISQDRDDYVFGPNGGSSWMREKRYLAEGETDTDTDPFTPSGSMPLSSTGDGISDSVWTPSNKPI
T1 sequence (O43526 whole entry): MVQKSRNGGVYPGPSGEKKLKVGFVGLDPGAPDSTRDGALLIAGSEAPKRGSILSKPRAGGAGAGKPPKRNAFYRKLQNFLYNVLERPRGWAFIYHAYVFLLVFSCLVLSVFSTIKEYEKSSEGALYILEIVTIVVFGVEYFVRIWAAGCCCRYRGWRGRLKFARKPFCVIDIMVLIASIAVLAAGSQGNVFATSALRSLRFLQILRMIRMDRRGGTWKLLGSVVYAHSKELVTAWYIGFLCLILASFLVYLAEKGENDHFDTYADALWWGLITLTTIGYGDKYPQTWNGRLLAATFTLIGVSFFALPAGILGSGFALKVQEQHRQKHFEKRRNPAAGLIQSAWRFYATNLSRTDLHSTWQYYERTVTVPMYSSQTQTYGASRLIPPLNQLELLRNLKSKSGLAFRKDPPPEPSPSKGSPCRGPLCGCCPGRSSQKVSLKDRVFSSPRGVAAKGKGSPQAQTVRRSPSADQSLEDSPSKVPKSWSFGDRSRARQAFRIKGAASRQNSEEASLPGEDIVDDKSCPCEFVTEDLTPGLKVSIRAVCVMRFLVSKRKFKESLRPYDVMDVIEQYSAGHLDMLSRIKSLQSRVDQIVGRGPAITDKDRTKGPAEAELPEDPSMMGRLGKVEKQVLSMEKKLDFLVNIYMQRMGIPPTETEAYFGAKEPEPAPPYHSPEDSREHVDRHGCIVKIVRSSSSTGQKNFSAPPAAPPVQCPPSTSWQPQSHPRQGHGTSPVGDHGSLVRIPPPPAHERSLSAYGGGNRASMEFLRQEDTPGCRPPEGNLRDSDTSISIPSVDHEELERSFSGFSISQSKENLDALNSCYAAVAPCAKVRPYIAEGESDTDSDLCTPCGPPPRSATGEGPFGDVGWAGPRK

As to `CCOC(=O)Nc1ccc(N2CCc3cc(F)ccc3C2)cc1N` [Compound 21, ethyl (2-amino-4-(6-fluoro-3,4-dihydroisoquinolin-2(1H)-yl)phenyl)carbamate], on human Kv7.2/7.3 channels (setting [2]), the half-maximal effective concentration (EC50) was 1000 to 5000 nM.
Take `C=CCN(Cc1cccc(C(F)(F)F)c1)c1ccc(NC(=O)OCC)c(N)c1` [Compound 6, ethyl (4-(allyl(3-(trifluoromethyl)benzyl)amino)-2-aminophenyl)carbamate]: the “activation of Kv7.2/7.3 channels as measured by the SyncroPatch platform” value (from here on “activation of Kv7.2/7.3 channels”) on human Kv7.2/7.3 channels is “dose-dependent activation”. Also, the concentration giving a half-maximal response (EC50) at human Kv7.2/7.3 channels (setting [2]) is 100 to 1000 nM.
On the same counts, the results for `C=CCN(Cc1ccc(F)cc1)c1ccc(NC(=O)OCC)c(N)c1` [Compound 4, ethyl (4-(allyl(4-fluorobenzyl)amino)-2-aminophenyl)carbamate] are “dose-dependent activation” and 100 to 1000 nM.
In the case of `CCOC(=O)Nc1ccc(N2CCc3cc(C(F)(F)F)ccc3C2)cc1N` [Compound 23, ethyl (2-amino-4-(6-(trifluoromethyl)-3,4-dihydroisoquinolin-2(1H)-yl)phenyl)carbamate], the EC50 at human Kv7.2/7.3 channels (setting [2]) lay within 1000 to 5000 nM.
With `CCOC(=O)Nc1ccc(N2CCc3ccc(F)cc3C2)c(F)c1N` [Compound 20, ethyl (2-amino-3-fluoro-4-(7-fluoro-3,4-dihydroisoquinolin-2(1H)-yl)phenyl)carbamate], the EC50 at human Kv7.2/7.3 channels (setting [2]) lay within 100 to 1000 nM.
On the same count and under the same terms, under `C#CCN(Cc1cccc(C(F)(F)F)c1)c1ccc(NC(=O)OCC)c(N)c1F` [Compound 9, ethyl (2-amino-3-fluoro-4-(prop-2-yn-1-yl(3-(trifluoromethyl)benzyl)amino)phenyl)carbamate] stands 100 to 1000 nM.
The same measure, in the same setting: under `CCOC(=O)Nc1ccc(N2CCc3ccc(C(F)(F)F)cc3C2)c(F)c1N` [Compound 18, Ethyl (2-amino-3-fluoro-4-(7-(trifluoromethyl)-3,4-dihydroisoquinolin-2(1H)-yl)phenyl)carbamate] stands 100 to 1000 nM; under `CCOC(=O)Nc1ccc(N2CCc3cc(F)ccc3C2)c(F)c1N` [Compound 17, ethyl (2-amino-3-fluoro-4-(6-fluoro-3,4-dihydroisoquinolin-2(1H)-yl)phenyl)carbamate], 100 to 1000 nM.
Take `CCOC(=O)Nc1ccc(NCc2ccc(F)cc2)cc1N` [Ezogabine, ethyl N-[2-amino-4-[(4-fluorophenyl)methylamino]phenyl]carbamate]: in data set [1], the half-life is 8 h.
With `C#CCN(Cc1cccc(C(F)(F)F)c1)c1ccc(NC(=O)OCC)c(N)c1` [Compound 12, ethyl (2-amino-4-(prop-2-yn-1-yl(3-(trifluoromethyl)benzyl)amino)phenyl)carbamate], the “activation of Kv7.2/7.3 channels” value on human Kv7.2/7.3 channels is “dose-dependent activation”. Besides, the EC50 at human Kv7.2/7.3 channels (setting [2]) is 100 to 1000 nM.
As for `C=CCN(Cc1cccc(C(F)(F)F)c1)c1ccc(NC(=O)OCC)c(N)c1F` [Compound 3, ethyl (4-(allyl(3-(trifluoromethyl)benzyl)amino)-2-amino-3-fluorophenyl)carbamate], the concentration for a half-maximal effect (EC50) at human Kv7.2/7.3 channels (setting [2]) lay within 5000 to 25000 nM.
As for `C=CCN(Cc1ccc(C(F)(F)F)cc1)c1ccc(NC(=O)OCC)c(N)c1F` [Compound 2, ethyl (4-(allyl(4-(trifluoromethyl)benzyl)amino)-2-amino-3-fluorophenyl)carbamate], on human Kv7.2/7.3 channels (setting [2]), the EC50 was 100 to 1000 nM.
On to `C#CCN(Cc1ccc(F)cc1)c1ccc(NC(=O)OCC)c(N)c1` [Compound 10, reference compound], for which the “activation of Kv7.2/7.3 channels” value on human Kv7.2/7.3 channels is “dose-dependent activation”. The EC50 on human Kv7.2/7.3 channels (setting [2]) was 1000 to 5000 nM.
On the same counts, the results for `C#CCN(Cc1ccc(C(F)(F)F)cc1)c1ccc(NC(=O)OCC)c(N)c1F` [Compound 8, ethyl (2-amino-3-fluoro-4-(prop-2-yn-1-yl(4-(trifluoromethyl)benzyl)amino)phenyl)carbamate] are “dose-dependent activation” and 100 to 1000 nM.
On the same counts, the results for `C#CCN(Cc1ccc(F)cc1)c1ccc(NC(=O)OCC)c(N)c1F` [Compound 7, ethyl (2-amino-3-fluoro-4-((4-fluorobenzyl)(prop-2-yn-1-yl)amino)phenyl)carbamate] are “dose-dependent activation” and 100 to 1000 nM.
Regarding `C#CCN(Cc1ccc(C(F)(F)F)cc1)c1ccc(NC(=O)OCC)c(N)c1` [Compound 11, ethyl (2-amino-4-(prop-2-yn-1-yl(4-(trifluoromethyl)benzyl)amino)phenyl)carbamate], the EC50 on human Kv7.2/7.3 channels (setting [2]) fell in the range of 100 to 1000 nM.
On the same count and under the same terms, under `C=CCN(Cc1ccc(F)cc1)c1ccc(NC(=O)OCC)c(N)c1F` [Compound 1, ethyl (4-(allyl(4-fluorobenzyl)amino)-2-amino-3-fluorophenyl)carbamate] stands 1000 to 5000 nM.
As for `CCOC(=O)Nc1c(N)cc(NCc2ccc(F)cc2)cc1F` [Compound X, reference compound], on human Kv7.2/7.3 channels, the EC50 fell in the range of 100 to 1000 nM and the “activation of Kv7.2/7.3 channels” value was “dose-dependent activation”.
On to `CCOC(=O)Nc1ccc(N2CCc3cc(C(F)(F)F)ccc3C2)c(F)c1N` [Compound 19, ethyl (2-amino-3-fluoro-4-(6-(trifluoromethyl)-3,4-dihydroisoquinolin-2(1H)-yl)phenyl)carbamate], for which the EC50 at human Kv7.2/7.3 channels (setting [2]) lay within 1000 to 5000 nM.
Same read-out and setting: under `CCOC(=O)Nc1ccc(N2CCc3ccc(C(F)(F)F)cc3C2)cc1N` [Compound 22, ethyl (2-amino-4-(7-(trifluoromethyl)-3,4-dihydroisoquinolin-2(1H)-yl)phenyl)carbamate] stands 100 to 1000 nM.
Still for that read-out and setting: for `CCOC(=O)Nc1ccc(N2CCc3ccc(F)cc3C2)cc1N` [Compound 24, ethyl (2-amino-4-(7-fluoro-3,4-dihydroisoquinolin-2(1H)-yl)phenyl)carbamate] the value was 1000 to 5000 nM.

Values taken from patent US11858900B2, “Fluorinated 2-amino-4-(substituted amino)phenyl carbamate derivatives” (OcuTerra Therapeutics, Inc., priority 2016, dated 2024).
